Literature values, collected in patent publication US20140050728A1, “METHODS AND COMPOSITIONS FOR INHIBITING CYCLOPHILIN D FOR THE TREATMENT AND PREVENTION OF OBESITY AND KIDNEY INDICATIONS” (BOARD OF REGENTS OF THE UNIVERSITY OF NEBRASKA, priority 2011, published 2014).

Conditions: for weight loss in clinical trials: none of the trials achieved the NIH effectiveness threshold

Row | Compound | weight loss in clinical trials | cardiovascular risk associated with use (banned in Europe, cautioned by U.S. FDA)
1 | CCCCCCCCCCC[C@@H](C[C@@H]1OC(=O)[C@H]1CCCCCC)OC(=O)[C@H](CC(C)C)NC=O [orlistat] | modest weight loss | 
2 | CC(C)CC(N(C)C)C1(c2ccc(Cl)cc2)CCC1 (stereo not drawn) [sibutramine] | modest weight loss | increased cardiovascular risk
